Tested on: AAT-induced hearing loss (six hours of 4 kHz octave band noise at 105 dB SPL)
Experiment: Acute acoustic trauma (AAT) in chinchillas, hearing levels by auditory brainstem response (ABR)
Format: in vivo, chinchilla
Conditions: every tested frequency
Protocol: With reference first to Tables 1-A, 1-B and 1-C, tests were conducted using six chinchillas for each experimental group and the control group. In these tests, the animals were exposed to AAT generated by six hours of noise exposure at 4 kHz octave band noise at 105 dB SPL. Treatments using 4-OHPBN (dosages of 10, 20, 50, and 75 mg/kg), ALCAR (dosages of 0, 20, 30, and 50 mg/kg), and NAC (50, 100, and 200 mg/kg) were given four hours after the AAT by intraperitoneal injection. Hearing levels were determined by auditory brainstem response (ABR) prior to the AAT event (baseline) and at 21 days post injection.
Table 3 depicts the results provided by treatment with a preferred embodiment of the current invention. In this embodiment, the AAT treatment therapy utilized a combination of 4-OHPBN (50 mg/kg) with NAC (100 mg/kg). Treatment consisted of intraperitoneal injection of the combined 4-OHPBN and NAC four hours after the AAT event. In this instance, six chinchillas were used for each test group. The animals were exposed to an AAT event produced by six hours of noise exposure at 4 kHz octave band noise at 105 dB SPL. Hearing levels reported in Table 3 were determined using the ABR method prior to the AAT event and 21 days post AAT. […] As indicated by the * each result was determined to be statistically significant and resulting from the treatment with the combination of 4-OHPBN and NAC. Statistical analysis was carried out using a one way ANOVA procedure and Post hoc test. While the above tests were conducted at the specified dosages, effective results should be realized at dosages between about 5 mg/kg and about 300 mg/kg for NAC and about 5 mg/kg and about 150 mg/kg for 4-OHPBN when NAC and 4-OHPBN are used in combination.
Table 4 depicts the results provided by treatment with another preferred embodiment of the current invention. The test for this embodiment utilized three test groups consisting of six chinchillas each. The chinchillas were exposed to an AAT event generated by a 105 dB narrow-band noise centered at 4 kHz for 6 hours. In this embodiment, the AAT treatment therapy utilized a combination of 4-OHPBN (20 mg/kg) with NAC (50 mg/kg) and ALCAR (20 mg/kg). Treatment consisted of intraperitoneal injection of the combined 4-OHPBN, NAC and ALCAR beginning four hours after noise exposure with injections repeated twice daily for the next two days. The control group was injected with carrier solution. Hearing levels reported in Table 4 were determined using the ABR method prior to the AAT event, immediately after the AAT event and 21 days after the AAT event.
Mean ABR threshold shifts were obtained and statistically analyzed using a two-way ANOVA procedure.

`CC(=O)N[C@@H](CS)C(=O)O` [NAC, N-acetylcysteine] was tested, and the “p (two way ANOVA and Post hoc test) vs control, ABR hearing level” value (NAC 100 mg/kg i.p. four hours after AAT) was under 0.05 and the “p (two way ANOVA and Post hoc test) vs control, ABR hearing level” value (NAC 200 mg/kg i.p. four hours after AAT) was under 0.05.
In the case of `CC(=O)O[C@H](CC(=O)[O-])C[N+](C)(C)C` [ALCAR, Acetyl-L-Carnitine], the “p (two way ANOVA and Post hoc test) vs control, ABR hearing level” value (ALCAR 30 mg/kg i.p. four hours after AAT) is reported as under 0.05 and the “p (two way ANOVA and Post hoc test) vs control, ABR hearing level” value (ALCAR 50 mg/kg i.p. four hours after AAT) is reported as under 0.05.
